How the values were obtained:
Assay in all cases: NCI-60 single-dose screen
Type in all cases: cell-based
786-0 = conditions: Homo sapiens, 786-0, Renal Cancer, read-out: % Growth Inhibition (GI%)
Method: (§1) Moreover, in vitro single-dose anticancer screening of 11 and 85 at 10 μM was performed utilizing the stable panel of 60 cell lines comprising 9 different cancer types at the National Cancer Institute (NCI) under the Developmental Therapeutics Program (Table S1).[31]

OVCAR-4 = conditions: Homo sapiens, OVCAR-4, Ovarian Cancer, read-out: % Growth Inhibition (GI%)
Method: as §1

ACHN = conditions: Homo sapiens, Renal Cancer, read-out: % Growth Inhibition (GI%)
Method: as §1

SK-MEL-2 = conditions: Homo sapiens, SK-MEL-2, Melanoma, read-out: % Growth Inhibition (GI%)
Method: as §1

NCI-H23 = conditions: Homo sapiens, NCI-H23, Non-Small Cell Lung Cancer, read-out: % Growth Inhibition (GI%)
Method: as §1

SR = conditions: Homo sapiens, Leukemia, read-out: % Growth Inhibition (GI%)
Method: as §1

COLO 205 = conditions: Homo sapiens, COLO 205, Colon Cancer, read-out: % Growth Inhibition (GI%)
Method: as §1

NCI-H522 = conditions: Homo sapiens, NCI-H522, Non-Small Cell Lung Cancer, read-out: % Growth Inhibition (GI%)
Method: as §1

U251 = conditions: Homo sapiens, U-251, U251, CNS Cancer, read-out: % Growth Inhibition (GI%)
Method: as §1

LOX-IMVI = conditions: Homo sapiens, Melanoma, read-out: % Growth Inhibition (GI%)
Method: as §1

HCT-116 = conditions: Homo sapiens, HCT-116, Colon Cancer, read-out: % Growth Inhibition (GI%)
Method: as §1

SF-268 = conditions: Homo sapiens, SF-268, CNS Cancer, read-out: % Growth Inhibition (GI%)
Method: as §1

K-562 = conditions: Homo sapiens, K562, K-562, Leukemia, read-out: % Growth Inhibition (GI%)
Method: as §1

SF-295 = conditions: Homo sapiens, SF-295, CNS Cancer, read-out: % Growth Inhibition (GI%)
Method: as §1

RPMI-8226 = conditions: Homo sapiens, RPMI-8226, Leukemia, read-out: % Growth Inhibition (GI%)
Method: as §1

IGROV1 = conditions: Homo sapiens, IGROV-1, IGROV1, Ovarian Cancer, read-out: % Growth Inhibition (GI%)
Method: as §1

KM12 = conditions: Homo sapiens, KM12, Colon Cancer, read-out: % Growth Inhibition (GI%)
Method: as §1

HOP-62 = conditions: Homo sapiens, HOP-62, Non-Small Cell Lung Cancer, read-out: % Growth Inhibition (GI%)
Method: as §1

MALME-3M = conditions: Homo sapiens, Melanoma, read-out: % Growth Inhibition (GI%)
Method: as §1

SNB-75 = conditions: Homo sapiens, SNB-75, CNS Cancer, read-out: % Growth Inhibition (GI%)
Method: as §1

HCT-15 = conditions: Homo sapiens, HCT-15, Colon Cancer, read-out: % Growth Inhibition (GI%)
Method: as §1

NCI/ADR-RES = conditions: Homo sapiens, Ovarian Cancer, read-out: % Growth Inhibition (GI%)
Method: as §1

OVCAR-3 = conditions: Homo sapiens, OVCAR-3, Ovarian Cancer, read-out: % Growth Inhibition (GI%)
Method: as §1

A549/ATCC = conditions: Homo sapiens, Non-Small Cell Lung Cancer, read-out: % Growth Inhibition (GI%)
Method: as §1

MDA-MB-231 = conditions: Homo sapiens, MDA-MB-231, Breast Cancer, read-out: % Growth Inhibition (GI%)
Method: as §1

HL-60 (TB) = conditions: Homo sapiens, Leukemia, read-out: % Growth Inhibition (GI%)
Method: as §1

M14 = conditions: Homo sapiens, M14, Melanoma, read-out: % Growth Inhibition (GI%)
Method: as §1

MOLT-4 = conditions: Homo sapiens, MOLT-4, Leukemia, read-out: % Growth Inhibition (GI%)
Method: as §1

HCC-2998 = conditions: Homo sapiens, HCC-2998, Colon Cancer, read-out: % Growth Inhibition (GI%)
Method: as §1

MCF7 = conditions: Homo sapiens, MCF7, Breast Cancer, read-out: % Growth Inhibition (GI%)
Method: as §1

NCI-H460 = conditions: Homo sapiens, NCI-H460, Non-Small Cell Lung Cancer, read-out: % Growth Inhibition (GI%)
Method: as §1

SF-539 = conditions: Homo sapiens, SF-539, CNS Cancer, read-out: % Growth Inhibition (GI%)
Method: as §1

OVCAR-5 = conditions: Homo sapiens, OVCAR-5, Ovarian Cancer, read-out: % Growth Inhibition (GI%)
Method: as §1

DU-145 = conditions: Homo sapiens, DU-145, Prostate Cancer, read-out: % Growth Inhibition (GI%)
Method: as §1

HS 578T = conditions: Homo sapiens, Breast Cancer, read-out: % Growth Inhibition (GI%)
Method: as §1

Compound	inhibition at 10 µM (786-0) [%]	inhibition at 10 µM (OVCAR-4) [%]	inhibition at 10 µM (ACHN) [%]	inhibition at 10 µM (SK-MEL-2) [%]	inhibition at 10 µM (NCI-H23) [%]	inhibition at 10 µM (SR) [%]	inhibition at 10 µM (COLO 205) [%]	inhibition at 10 µM (NCI-H522) [%]	inhibition at 10 µM (U251) [%]	inhibition at 10 µM (LOX-IMVI) [%]	inhibition at 10 µM (HCT-116) [%]	inhibition at 10 µM (SF-268) [%]	inhibition at 10 µM (K-562) [%]	inhibition at 10 µM (SF-295) [%]	inhibition at 10 µM (RPMI-8226) [%]	inhibition at 10 µM (IGROV1) [%]	inhibition at 10 µM (KM12) [%]	inhibition at 10 µM (HOP-62) [%]	inhibition at 10 µM (MALME-3M) [%]	inhibition at 10 µM (SNB-75) [%]	further results
Cc1ccccc1COc1ccc(-c2ccnn2-c2ccc(Cl)cc2)cc1 [compound 85, 1-(4-Chlorophenyl)-5-(4-((2-methylbenzyl)oxy)phenyl)-1H-pyrazole]	17.2	14.3	22.4	60.8	23.4	66.2	28.8	70.9	54	35.7	61.9	19.5	86.3	46.9	22.6	42.5	49.3	50.7	32.8	39.3	inhibition at 10 µM (HCT-15): 60.1%; inhibition at 10 µM (NCI/ADR-RES): 62%; inhibition at 10 µM (OVCAR-3): 73.4%; inhibition at 10 µM (A549/ATCC): 50.5%; inhibition at 10 µM (MDA-MB-231): 75.8%; inhibition at 10 µM (HL-60 (TB)): 86.7%; inhibition at 10 µM (M14): 61%; inhibition at 10 µM (MOLT-4): 73.7%; inhibition at 10 µM (HCC-2998): 10.9%; inhibition at 10 µM (MCF7): 68.1%; inhibition at 10 µM (NCI-H460): 41.7%; inhibition at 10 µM (SF-539): 28.2%; inhibition at 10 µM (OVCAR-5): 8.29%; inhibition at 10 µM (DU-145): 11.9%; inhibition at 10 µM (HS 578T): 39.1%
Cc1ccccc1COc1ccc(-c2noc(C)c2-c2ccc(Cl)cc2)cc1 [compound 11, 4-(4-Chlorophenyl)-5-methyl-3-(4-((2-methylbenzyl)oxy)phenyl)isoxazole]	24.5	17.3	33	62.9	26.2	66	29	74.5	58.7	32	66	24.4	85.6	50.6	19	47.5	45.7	48.4	40.2	47.1	inhibition at 10 µM (HCT-15): 62.5%; inhibition at 10 µM (NCI/ADR-RES): 60.8%; inhibition at 10 µM (OVCAR-3): 79.3%; inhibition at 10 µM (A549/ATCC): 50.7%; inhibition at 10 µM (MDA-MB-231): 79.2%; inhibition at 10 µM (HL-60 (TB)): 82.3%; inhibition at 10 µM (M14): 67.8%; inhibition at 10 µM (MOLT-4): 67.2%; inhibition at 10 µM (HCC-2998): 13.4%; inhibition at 10 µM (MCF7): 68.3%; inhibition at 10 µM (NCI-H460): 45.3%; inhibition at 10 µM (SF-539): 36.5%; inhibition at 10 µM (OVCAR-5): 12.4%; inhibition at 10 µM (DU-145): 22.6%; inhibition at 10 µM (HS 578T): 40.6%
